Source: PMC3723632, “A Multi-targeted Drug Candidate with Dual Anti-HIV and Anti-HSV Activity” (PLoS Pathogens, 2013)
Values after ≈ are worked out from the molar mass of the structure shown. Like-named read-outs stand apart in the source and are kept apart here.

Legend:
HIV-1(IIIB) = assay: Anti-HIV-1 activity in CD4+ T-lymphocyte CEM cell cultures; format: cell-based; details: Human immunodeficiency virus 1, CCRF-CEM, virus-induced cytopathicity
Description: (§1) Human CD4 ^+ T-lymphocyte CEM cell cultures were inoculated with HIV-1 and HIV-2 and exposed to adefovir, tenofovir, or PMEO-DAPym. […]

HIV-2(ROD) = assay: Anti-HIV-2 activity in CD4+ T-lymphocyte CEM cell cultures; format: cell-based; details: Human immunodeficiency virus 2, CCRF-CEM; HIV-2(ROD), CEM, virus-induced cytopathicity; read-out: EC50
Description: as §1

HSV-2 (G) [1] = assay: HSV-2 infection of primary monocyte/macrophage (M/M) cultures; format: cell-based
Experimental: We obtained human PBMC from the blood of healthy seronegative donors using Ficoll–Hypaque density gradient centrifugation. The PBMC were resuspended in RPMI 1640 medium supplemented with 20% heat-inactivated serum and then seeded into 48-well plates (1.8×10^6 cells/well). M/M were separated by adherence onto plastic. After 5 days, non-adherent cells were carefully removed by repeated gentle washings with warm medium, and adherent M/M were cultured for an additional 3 days to mature and to form a monolayer. M/M were estimated to be 10^5 cells/well at the time of infection. […]. Similarly, macrophage cultures were treated with the same concentrations of adefovir and tenofovir. Macrophage cultures were then infected with HSV-2 (G) (100 TCID50) in the presence of the compounds. After 2 h of adsorption, the cultures were extensively washed to remove any residual virus particles. Fresh complete medium and compounds, at the established concentrations, were then added to the cultures. Appropriate positive (infected but not treated) and mock-infected negative (uninfected and untreated) M/M controls were run for each experiment as well. All assays were performed in triplicate. […] We determined the amount of infectious virus in the supernatants 5–6 days after infection using the cytopathic effect assay. Tenfold serially diluted supernatants were added to confluent monolayers of Vero cells in 96-well plates (100 µl/well, 6 parallel wells). […] The titers of virus produced were calculated according to the Reed and Muench method and expressed as 50% tissue culture infective dose per mL (TCID50/mL).

HSV-2 (G) [2] = assay: HSV-2 replication in human ex vivo tonsillar (lymphoid) tissue, viral DNA; format: cell-based
Description: Figure 5 Suppression of HSV-2 in infected human ex vivo tonsillar tissue by adefovir and PMEO-DAPym. Blocks of human tonsillar tissue were inoculated ex vivo with HSV-2 (G) and treated or not with adefovir or PMEO-DAPym. We monitored HSV-2 (G) replication by measuring viral DNA in culture media at different times throughout the culture period. Presented are means ± SEM of cumulative HSV-2 (G) replication in tissues from two to six donors. For each donor, data represent pooled viral release from 27 tissue blocks.
Figure 7 Suppression of HSV-2 in single-infected and HIV-1 co-infected human ex vivo tonsillar tissue by adefovir and PMEO-DAPym. Panels A and B: Blocks of human tonsillar tissue from five different donors were co-inoculated ex vivo with HSV-2 (G) and HIV-1 (LAI) and treated or not with adefovir or PMEO-DAPym (1 µg/ml). For tissue from each donor, we monitored replication of both viruses by evaluating their accumulation in the culture media bathing 27 tissue blocks at different times throughout the culture. We evaluated HIV-1 replication by measuring p24gag and HSV-2 (G) replication by measuring HSV-2 viral DNA. Panel A: Presented are kinetics of HSV-2 (G) and HIV-1 (LAI) replication (insert). Each point represents the mean ± SEM of viral replication in tissues from five donors. Panel B: Presented are means ± SEM of cumulative HSV-2 (G) and HIV-1 (LAI) replication (insert).
Human tonsillar tissues were obtained from patients undergoing routine tonsillectomy at the Children's National Medical Center (Washington, DC) under IRB-approved protocol. Cervical tissues were obtained through the National Disease Research Interchange (NDRI, Philadelphia, PA). Tissues were dissected into blocks of about 2×2×2 mm and placed onto collagen sponge gels in culture medium at the air-liquid interface as described earlier. For tonsillar tissue for each experimental condition, 27 tissue blocks (9 blocks/well filled with 3 ml of medium) were inoculated with HSV-1 (strain F) or HSV-2 (strains G and MS). In coinfection experiments, tissue blocks were sequentially infected with HSV-2 (G) and HIV-1 (IIIB) (obtained from the Rush University Virology Quality Assurance Laboratory, Chicago, IL). Drugs (adefovir and PMEO-DAPym) were added to the culture medium 12 h prior to viral infection and replenished at each culture medium change.
For cervico-vaginal tissue, 16 blocks were infected by immersion in HSV-2G-containing medium and maintained on the gelfoam rafts. Adefovir was added at the time of infection and replenished at each culture medium change. HSV replication was evaluated from the release of viral DNA into the culture medium as measured with quantitative real-time PCR [18]. We evaluated HIV-1 replication from the release of p24 capsid antigen using a bead-based assay.

HSV-1 (KOS strain) = assay: Pre-treatment of PHK cell cultures, HSV-1 infection (CPE)
Experimental: (§2) The HSV-induced cytopathic effect (CPE) was evaluated in HSV-infected HEL and PHK cultures as described [44], [48].

HSV-2 (G strain) = assay: Pre-treatment of PHK cell cultures, HSV-2 infection (CPE)
Experimental: as §2

- EC50 (HIV-1(IIIB)): > 100 µg/mL
- EC50 (HIV-2(ROD)): > 100 µg/mL
- EC50 (HSV-2 (G) [1]; Human alphaherpesvirus 2, HSV-2 (G), human monocyte/macrophages): 0.13 ± 0.015 µg/mL (≈ 0.577 µM)
- EC50 (HSV-1 (KOS strain); Human alphaherpesvirus 1, read-out: 50% effective concentration, PHK, HSV-1 KOS, +2 h to 72 h (control, drug present whole incubation)): 0.33 ± 0.25 µg/mL (≈ 1.47 µM)
- EC50 (HSV-1 (KOS strain); Human alphaherpesvirus 1, read-out: 50% effective concentration, PHK, HSV-1 KOS, pretreatment −2.5 h to 0 h): > 50 µg/mL
- EC50 (HSV-1 (KOS strain); Human alphaherpesvirus 1, read-out: 50% effective concentration, PHK, HSV-1 KOS, pretreatment −6 h to 0 h): > 50 µg/mL
- EC50 (HSV-1 (KOS strain); Human alphaherpesvirus 1, read-out: 50% effective concentration, PHK, HSV-1 KOS, pretreatment −18 h to 0 h): > 50 µg/mL
- EC50 (HSV-2 (G strain); Human alphaherpesvirus 2, read-out: 50% effective concentration, PHK, HSV-2 G, +2 h to 72 h (control, drug present whole incubation)): 0.41 ± 0.13 µg/mL (≈ 1.82 µM)
- EC50 (HSV-2 (G strain); Human alphaherpesvirus 2, read-out: 50% effective concentration, PHK, HSV-2 G, pretreatment −2.5 h to 0 h): 50 µg/mL (≈ 222 µM)
- EC50 (HSV-2 (G strain); Human alphaherpesvirus 2, read-out: 50% effective concentration, PHK, HSV-2 G, pretreatment −6 h to 0 h): > 50 µg/mL
- EC50 (HSV-2 (G strain); Human alphaherpesvirus 2, read-out: 50% effective concentration, PHK, HSV-2 G, pretreatment −18 h to 0 h): > 50 µg/mL
Structure (SMILES): Nc1nc2c(ncn2COCCO)c(=O)[nH]1 [Acyclovir, 9-(2-hydroxyethyloxymethyl)guanine]
- Cytopathicity (CPE) on macrophages 6 days after infection % CPE (HSV-2 (G) [1]; 0.000025 µg/ml): 75%
- Virus production by HSV2-infected macrophages 6 days after infection (CPE reduction) (HSV-2 (G) [1]; 0.000025 µg/ml): 1.3×10^4 TCID50/ml
- Cytopathicity (CPE) on macrophages 6 days after infection % CPE (HSV-2 (G) [1]; 0.000128 µg/ml): 40%
- Virus production by HSV2-infected macrophages 6 days after infection (CPE reduction) (HSV-2 (G) [1]; 0.000128 µg/ml): 7.2×10^3 TCID50/ml
- Cytopathicity (CPE) on macrophages 6 days after infection % CPE (HSV-2 (G) [1]; 0.00064 µg/ml): 10%
- Virus production by HSV2-infected macrophages 6 days after infection (CPE reduction) (HSV-2 (G) [1]; 0.00064 µg/ml): 3.5×10^2 TCID50/ml
- Virus production by HSV2-infected macrophages 6 days after infection (CPE reduction) (HSV-2 (G) [1]; 0.003 µg/ml): No virus
- Virus production by HSV2-infected macrophages 6 days after infection (CPE reduction) (HSV-2 (G) [1]; 0.016 µg/ml): No virus
- Virus production by HSV2-infected macrophages 6 days after infection (CPE reduction) (HSV-2 (G) [1]; 0.08 µg/ml): No virus
- inhibition at 25 pg/mL (HSV-2 (G) [1]; Human alphaherpesvirus 2, 144 h, 0.000025 µg/ml, M/M, day 6, read-out: Inhibition of viral replication (% to control)): 7.2%
- inhibition at 0.000128 µg/mL (HSV-2 (G) [1]; Human alphaherpesvirus 2, 144 h, 0.000128 µg/ml, M/M, day 6, read-out: Inhibition of viral replication (% to control)): 49%
- inhibition at 0.00064 µg/mL (HSV-2 (G) [1]; Human alphaherpesvirus 2, 144 h, 0.00064 µg/ml, M/M, day 6, read-out: Inhibition of viral replication (% to control)): 97%
- inhibition at 0.003 µg/mL (HSV-2 (G) [1]; Human alphaherpesvirus 2, 144 h, 0.003 µg/ml, M/M, day 6, read-out: Inhibition of viral replication (% to control)): 100%
- inhibition at 0.016 µg/mL (HSV-2 (G) [1]; Human alphaherpesvirus 2, 144 h, 0.016 µg/ml, M/M, day 6, read-out: Inhibition of viral replication (% to control)): 100%
- inhibition at 0.08 µg/mL (HSV-2 (G) [1]; Human alphaherpesvirus 2, 144 h, 0.08 µg/ml, M/M, day 6, read-out: Inhibition of viral replication (% to control)): 100%
- inhibition at 0.3 µg/mL (HSV-2 (G) [2]; Human alphaherpesvirus 2, human lymphoid tissue ex vivo, 0.3 µg/mL, read-out: Inhibition of viral replication (% to control)): 99.9%
- inhibition at 3 µg/mL (HSV-2 (G) [2]; Human alphaherpesvirus 2, human lymphoid tissue ex vivo, 3 µg/mL, read-out: Inhibition of viral replication (% to control)): > 99%
- HSV-2 DNA copies (HSV-2 (G) [2]; human lymphoid tissue ex vivo, 0.3 µg/mL): 1.69 e+5 copies
- HSV-2 DNA copies (HSV-2 (G) [2]; human lymphoid tissue ex vivo, 3 µg/mL): 2.83 e+4 copies
- Inhibition of viral replication (% to control) (HSV-2 (G) [2]; human lymphoid tissue ex vivo, 3 µg/mL, listed as ACV): 99.98%
